Key:
[1] = system: phenylquinone-induced writhing reactions; test: phenylquinone-induced writhing test in mice; type: in vivo, mouse
Experimental: The antinociceptive activity of the compounds according to the invention was investigated in mice in the phenylquinone-induced writhing test, modified by I. C. Hendershot, J. Forsaith, J. Pharmacol. Exp. Ther. 125, 237-240 (1959). Male NMRI mice weighing 25-30 g were employed for this. Groups of 10 animals per substance dose received 0.3 ml/mouse of a 0.02% aqueous solution of phenylquinone (phenylbenzoquinone, Sigma, Deisenhofen; preparation of the solution with the addition of 5% ethanol and storage in a water bath at 45° C.) administered intraperitoneally 10 minutes after intravenous administration of a compound according to the invention. The animals were placed individually in observation cages. The number of pain-induced stretching movements (so-called writhing reactions=straightening of the body with stretching of the hind extremities) was counted by means of a push-button counter for 5-20 minutes after the administration of phenylquinone.
The ED50 values of the writhing reaction were calculated by means of regression analysis (evaluation program, Martens EDV Service, Eckental) from the dose-dependent decrease in writhing reactions compared with animal groups investigated in parallel to which no compound according to the invention was administered.
The majority of the substances were tested in the standard dose of 10 mg/kg. The percentage inhibition (% inhibition) of the writhing reactions by a substance was then calculated according to the following equation: [formula] The results are summarized in table 1 for selected compounds.

[2] = male NMRI mice, standard dose of 10 mg/kg

SMILES	Writhing test, mouse, i.v. decrease in writhing reactions (% inhibition) [1, 2]	melting point	other results
CN(C)CC1CCOc2ccccc2/C1=C\c1cccc(O)c1.Cl (racemic) [Example 6c, Z-(4RS)3-(4-Dimethylaminomethyl-3,4-dihydro-2H-benzo[b]oxepin-5-ylidene-methyl)-phenol hydrochloride]	78%	–	–
CN(C)CC1=C(Cc2ccc(Cl)cc2)c2ccccc2CC1.Cl [Example 2]	61.5%	–	Writhing test, mouse, i.v. ED50 ([1]; male NMRI mice, 10 minutes before phenylquinone i.p.): 6.85 mg/kg
CN(C)CC1CCOc2ccccc2/C1=C/c1cccc(O)c1.Cl (racemic) [Example 6b, E-(4RS)3-(4-Dimethylaminomethyl-3,4-dihydro-2H-benzo[b]oxepin-5-ylidene-methyl)-phenol hydrochloride]	–	–	Writhing test, mouse, i.v. decrease in writhing reactions (% inhibition) ([1]; male NMRI mice, dose 21.5 mg/kg as printed in table 1): 91% [21.5 mg/kg]; inhibition of writhing reactions ([1]; mouse, i.v., dose of 2.15 mg/kg body weight as printed in text): 91%
CN(C)CC1=C(Cc2cccc(O)c2)c2ccccc2CC1.Cl [Example 3, 3-(2-Dimethylaminomethyl-3,4-dihydro-naphth-1-ylmethyl)-phenol hydrochloride]	93%	–	–
CN(C)CC1CCCc2ccccc2/C1=C/c1ccc(Cl)cc1.Cl (racemic) [Example 4e, E-(5RS)-[5-(4-Chlorobenzylidene)-6,7,8,9-tetrahydro-5H-benzocyclohepten-6-ylmethyl]-dimethylamine hydrochloride]	69%	–	–
CN(C)CC1=C(Cc2ccc(Cl)cc2)c2ccc(O)cc2CC1.Cl	–	110 °C (dec.)	–
CN(C)CC1=C(Cc2cccc(O)c2)c2ccccc2OCC1.Cl [Example 6a, 3-(4-Dimethylaminomethyl-2,3-dihydro-benzo[b]oxepin-5-ylmethyl)-phenol hydrochloride]	95%	–	–
CN(C)CC1=C(Cc2ccc(Cl)cc2)c2ccccc2CCC1.Cl	–	240 to 243 °C	–
CN(C)CC1=C(Cc2ccc(Cl)cc2Cl)c2ccccc2CC1.Cl	–	208 to 209 °C	–
CN(C)CC1CCOc2ccccc2/C1=C\c1ccc(Cl)cc1.Cl (racemic) [Example 7c, Z-(4RS) [5-(4-Chlorobenzylidene)-2,3,4,5-tetrahydro-benzo[b]oxepin-4-yl-methyl]-dimethylamine hydrochloride]	79%	–	–
CN(C)CC1=C(Cc2ccc(Cl)cc2)c2cccc(O)c2CC1.Cl [Example 4c, 5-(4-Chlorobenzyl)-6-dimethylaminomethyl-7,8-dihydro-naphth-1-ol hydrochloride]	84%	136 to 139 °C	–
